Source: patent publication US20200048469A1, “POLYMERIC TANDEM DYES HAVING PENDANT NARROW EMISSION ACCEPTOR” (Becton, Dickinson and Company, priority 2018, published 2020)

How the values were obtained:
[1] = Spectroscopic characterization of BODIPY dyes (absorption, emission, FWHM, quantum yield); format: physicochemical; details: for Abs Max / Em Max: Table 1, free dye, solvent not stated; for FWHM: Table 1, full width half maximum of emission, free dye
Protocol: (§1) A variety of BODIPY dyes were prepared and conjugated to polymeric dyes to prepare polymeric tandem dyes. […] The spectroscopic characteristics of particular BODIPY dyes and polymeric tandem dyes including the same were assessed. […] Further details of exemplary BODPY dyes and tandem dyes including the same are provided below in Tables 1 and 2.

[2] = Absorption and emission spectra of free narrow emission dyes in ethanol; format: physicochemical
Protocol: as §1

Row | Abs Max [1] | Em Max [1] | FWHM [1] | Compound | other results
1 | 533 nm | 550 nm | 26 nm | O=C(O)CCc1ccc2n1[B-](F)(F)[N+]1=C(c3ccccc3)C=CC1=C2 [BODIPY R6G] | –
2 | – | – | – | CCN1\C(=C/C=C/C=C/C2=[N+](CCCCCC(=O)O)c3ccc4c(S(=O)(=O)O)cc(S(=O)(=O)O)cc4c3C2(C)C)C(C)(C)c2c1ccc1c(S(=O)(=O)[O-])cc(S(=O)(=O)O)cc21 [Cy5.5] | Dye Abs. max ([2]; dye in ethanol): 673 nm; Dye Em. FWHM ([2]; dye in ethanol): 42 nm; Dye Em. Max ([2]; dye in ethanol): 691 nm; Dye Stokes Shift ([2]; dye in ethanol): 18 nm
3 | – | – | – | CCN1/C(=C/C=C/C=C/C2=[N+](CCCCCC(=O)O)c3ccc(S(=O)(=O)O)cc3C2(C)C)C(C)(C)c2cc(S(=O)(=O)[O-])ccc21 [Cy5] | Dye Abs. max ([2]; dye in ethanol): 649 nm; Dye Em. FWHM ([2]; dye in ethanol): 35 nm; Dye Em. Max ([2]; dye in ethanol): 666 nm; Dye Stokes Shift ([2]; dye in ethanol): 17 nm
4 | – | – | – | CCN1C(=CC=CC=CC=CC2=[N+](CCCCCC(=O)O)c3ccc(S(=O)(=O)O)cc3C2(C)C)C(C)(C)c2cc(S(=O)(=O)[O-])ccc21 [Cy7] | Dye Abs. max ([2]; dye in ethanol): 752 nm; Dye Em. FWHM ([2]; dye in ethanol): 52 nm; Dye Em. Max ([2]; dye in ethanol): 776 nm; Dye Stokes Shift ([2]; dye in ethanol): 24 nm
5 | 582 nm | 590 nm | 29 nm | BODIPY 581/591 | –
6 | 630 nm | 641 nm | 30 nm | BODIPY 630/650 | –
7 | 650 nm | 665 nm | 37 nm | BODIPY 650/665 | –
8 | 550 nm | 570 nm | 30 nm | BODIPY TMR | –
9 | 590 nm | 620 nm | 35 nm | BODIPY TR | –
10 | – | – | – | CF594 | Dye Abs. max ([2]; measured in DMAC): 592 nm; Dye Em. FWHM ([2]; measured in DMAC): 37 nm; Dye Em. Max ([2]; measured in DMAC): 615 nm; Dye Stokes Shift ([2]; measured in DMAC): 23 nm

Row | Compound | Abs Max [1] | Em Max [1] | FWHM [1] | other results
11 | Cc1cc(C)n2c1C=C1C=CC(CCC(=O)O)=[N+]1[B-]2(F)F [BODIPY FL] | 505 nm | 513 nm | 21 nm | –
